What was measured:
[1] = tested on: CD45hi CD11b+F4/80+brain perivascular macrophages; assay: Frequency of brain perivascular macrophages in ALS transgenic animals; format: in vivo, mice; settings: 25 mg/kg orally 3 times a week for 8 weeks, 13 weeks of age
Protocol: ALS transgenic animals were orally treated 3 times a week for 8 weeks with 0.5% methylcellulose or ZLN005 (Sigma) at 25 mg/kg in 0.5% methylcellulose, starting at 5 weeks of age. For measuring the frequency of CD45hi CD11b+F4/80+brain perivascular macrophages, ALS-Ctrl (n=13), ALS-ZLN (n=17), and WT animals (n=17) were sacrificed at 13 weeks of age. PBS-perfused brain tissues of sacrificed animals were digested with Collagenase IV and processed for flow cytometry. The results are summarized in FIG. 19; Y-axis represents % of brain perivascular macrophages among total brain immune cells in the brain. […] ANOVA was used for statistical analysis.

AD transgenic animals = assay: Nest building in 5XFAD AD transgenic animals; format: in vivo, mice; settings: 25 mg/kg orally 3 times a week for 4 weeks, 7 weeks of age, vs 5XFAD-Ctrl
Protocol: As described in Example 7, nest-building skill is one of the most reliable measurements of motor function. In this test, AD transgenic animals were orally treated 3 times a week for 4 weeks with 0.5% methylcellulose or ZLN005 (Sigma) at 25 mg/kg in 0.5% methylcellulose, starting at 3 weeks of age. At 7 weeks of age, animals were given cotton pads and the amount of cotton that was shredded over a 24-hour period was measured. […] Unpaired t-test was used for statistical analysis.

[2] = tested on: brains of STZ-treated-animals; assay: Gene expression in brain in acute STZ model of AD; format: in vivo, mice; settings: 25 mg/kg orally daily until Day 4
Protocol: To induce symptoms of AD, STZ (3 mg/kg, Sigma) was administered via intracerebral injection ([…] et al, Int J Neurosci, PMID 24494726, 2014). This is a well-established model of the sporadic form of AD. Briefly, animals were anesthetized and STZ solution in 5 μl artificial cerebrospinal fluid (Harvard Apparatus) was injected through the skull with a 50 μl syringe. Control animals received a similar volume of artificial cerebrospinal fluid without STZ. The injections were performed twice, on Day 1 and Day 3. […] Treatment with ZLN005 was continued on a daily schedule until Day 4.

HD transgenic mice = assay: Wheel-running test in HD transgenic animals (R6/2); format: in vivo; settings: HD transgenic (R6/2); 25 mg/kg orally 3 times a week for 4 weeks from 6 weeks of age; constant speed 5 rpm
Protocol: The wheel-running test in this example was performed similarly to that described in Example 8. HD transgenic animals (R6/2) were purchased from Jackson Laboratories. […] HD transgenic mice were orally treated 3 times a week for 4 weeks with either 0.5% methylcellulose (n=8) or ZLN005 (Sigma) at 25 mg/kg in 0.5% methylcellulose (n=7), starting at 6 weeks of age. Subsequently, at 10 weeks of age, these mice were subjected to 2 weeks of training on a treadmill at a constant speed of 5 rpm (rotations per minute). After the training, mice were tested for motor performance at a constant speed of 5 rpm. […] Unpaired t-test was used for statistical analysis.

[3] = tested on: brain perivascular macrophages; assay: 2-NBDG glucose uptake in brain perivascular macrophages of ALS transgenic animals; format: in vivo, mice; settings: 25 mg/kg orally 3 times a week for 8 weeks, 13 weeks of age
Protocol: ALS transgenic animals were orally treated 3 times a week for 8 weeks with 0.5% methylcellulose or ZLN005 (Sigma) at 25 mg/kg in 0.5% methylcellulose, starting at 5 weeks of age. For measuring brain perivascular macrophages, ALS-Ctrl (n=8), ALS-ZLN (n=8), and WT animal (n=12) were sacrificed at 13 weeks of age. PBS-perfused brain tissues of sacrificed animals were digested with Collagenase IV and processed for flow cytometry. Brain perivascular macrophages were stained with 2-NBDG, the fluorescent glucose analog, to measure glucose uptake for flow cytometric acquisition (LSRII, BD) and analysis (FlowJo). The results are summarized in FIG. 20; Y-axis represents % of brain perivascular macrophages that have taken up the glucose analog, 2-NBDG. […] ANOVA was used for statistical analysis.

microglia = assay: Microglia IL1 and TNFα in 5XFAD AD transgenic animals; format: in vivo, mice; settings: 25 mg/kg orally 3 times a week for 4 weeks, 7 weeks of age
Excerpt: 5XFAD transgenic mice, which are model of familial AD, were purchased from Jackson Laboratories (Oakley et al J Neurosci. 26:10129-40, 2006). These animals overexpress both mutant human APP(695) with the Swedish (K670N, M671L), Florida (I716V), and London (V7171) Familial Alzheimer's Disease (FAD) mutations and human PS1 harboring two FAD mutations, M146L and L286V. These transgenic mice rapidly recapitulate major features of amyloid pathology in AD by 8-10 weeks of age. Microglia abnormalities and neuroinflammation are also pronounced within this time window. Subsequently, neurodegeneration and behavioral dysfunction that mimic cognitive and psychiatric symptoms of human AD begin and are pronounced by 4-5 months of age. AD transgenic animals were orally treated 3 times a week for 4 weeks with 0.5% methylcellulose or ZLN005 (Sigma) at 25 mg/kg in 0.5% methylcellulose, starting at 3 weeks of age. For studies of microglia, 5[…]=10), 5XFAD-Ctrl (n=8) and WT (n=11) animals were sacrificed at 7 weeks of age. PBS-perfused brain tissues of sacrificed animals were digested with Collagenase IV and processed for flow cytometry. Brain microglia were phenotyped with antibodies directed against mouse IL1 and TNFα (Biolegend) for flow cytometric acquisition (LSRII, BD) and analysis (FlowJo). The results are summarized in FIG. 12; Y-axis represents % of microglia that express IL1 (A) and TNFα (B). […]

[4] = tested on: Ppargc1a pathway in the brain
Protocol: To induce symptoms of PD, MPTP (20 mg/kg) was administered intraperitoneally in sterile PBS 4 times at 2-hour intervals on day 1. […] Log-rank test was used for statistical analysis.
Ppargc1a, an inducer of mitochondrial biogenesis, is widely expressed in cells throughout the body.
For gene expression studies, animals were sacrificed on Day 4, 24 hours after the 3rd oral dosage of ZLN005, and PBS-perfused brain tissues were processed for RNA isolation, cDNA synthesis, and real-time quantitative PCR (Invitrogen). […] Unpaired t-tests were used for statistical analyses.

`CC(C)(C)c1ccc(-c2nc3ccccc3[nH]2)cc1` [ZLN005, 2-(4-tert-butylphenyl)-1H-benzimidazole] was tested, and the “percentage of brain perivascular macrophages among total brain immune cells” value [1] was “decreased”, the “nest building, amount of cotton shredded over 24 hours” value (AD transgenic animals) was “significantly increased the amount of cotton shredded” and the “expression of genes involved in Ppargc1a signaling and antioxidant defense (Tfam, Cytc) in the brain” value [2] was “increased expression”. For the same molecule, the “expression of genes involved in β-amyloid generation (App and Psen1) in the brain” value [2] was “decreased the expression”, the latency to fall (HD transgenic mice) was 110 s and the “glucose uptake (2-NBDG) in brain perivascular macrophages” value [3] was “decreased”. The “IL1 production in microglia” value (microglia) was “decreased”, the “TNFα production in microglia” value (microglia) was “decreased” and the “expression of genes involved in Ppargc1a signaling (Pgc1a), mitochondrial genes (Tfam, Nrf2, Ucp3) and anti-oxidative stress genes (Ant, Sod1, Sod2) in the brain” value ([4]; MPTP-treated animals, 25 mg/kg orally once a day for 3 days, Day 4) was “increases expression of genes”. For the same molecule, the “upregulation of tyrosine hydroxylase (Th)” value ([4]; brain of MPTP-treated animals, 25 mg/kg orally once a day for 3 days, Day 4) was 15% and the blood-brain barrier penetration ([4]; mouse, in vivo, po, 25 mg/kg) was “penetrated the blood-brain barrier”.

Reference: patent publication US10966962B2, “Method for treating neurodegenerative diseases” (THE BOARD OF TRUSTEES OF THE LELAND STANFORD JUNIOR …, priority 2014, dated 2021)
